This is an account of results in US10709140B2, “Methods and products for reducing the population size of Papilio demoleus L. (papilionidae)” (The University of The West Indies, priority 2010, dated 2020).

For experiment [1], the system named is P. demoleus. In words: Egg laying by P. demoleus on Piper aduncum cuttings sprayed with lime oil or d-limonene (choice test, Example 5). The format is in vivo, Papilio demoleus. The method, then:
Five P. demoleus pupae were placed in the cage. Upon hatching, the emerging adults were determined to be 3 males and 2 females. The butterflies were allowed to mate and given a choice of plants on which to lay by placing all around the cage unsprayed lime seedlings, unsprayed Piper aduncum cuttings, Piper aduncum cuttings sprayed with lime oil, and Piper aduncum cuttings sprayed with d-limonene. Egg laying was allowed to continue for up a total of 16 days, only the first 8 of which the Piper aduncum shoots remained fresh. Referring to Table 5A, a total of 16 eggs were laid in the first 8 days. The majority of eggs (62.5%) were laid on unsprayed lime plant. However, a significant number of eggs were laid on sprayed Piper aduncum shoots (37.5%). […] No eggs were laid on unsprayed Piper aduncum.
After day 8, the Piper aduncum leaves began to wilt and were noticeably less attractive to gravid females. […] By day 20, no more eggs were laid, and the total number of eggs was counted.
All of the eggs that were laid on lime plant hatched into larvae that fed normally on the lime plant leaves on which they were laid. The 6 eggs laid on Piper aduncum shoots sprayed with lime oil or d-limonene hatched normally. The Piper aduncum shoots were still young, fresh, and otherwise capable of sustaining larvae when the eggs laid eggs on sprayed Piper aduncum shoots hatched. […]

The test system of experiment [2] is P. demoleus. In words: Induced egg laying of P. demoleus on Piper amalago var. amalago plant sprayed with lime plant oil (choice test, Example 2). Particulars: Piper amalago var. amalago plant sprayed with the attractant. The format is in vivo, Papilio demoleus. From the text: P. demoleus were induced to lay eggs on Piper amalago var. amalago plant to confirm its unsuitability to sustain target insects and to determine whether it could be used to reduce the population size of target insects. Natural Piper amalago var. amalago plant was considered a suitable non-host plant because P. demoleus would not feed or breed on it in the wild.
Twelve pupae bred on lime plants were placed in the laying cage and were allowed to mate. Gravid females were given a choice of plants on which to lay: unsprayed lime, unsprayed Piper amalago var. amalago plant, and Piper amalago var. amalago plant sprayed with lime plant oil. Piper amalago var. amalago plant sprayed with lime plant oil was prepared using an aerosol spray containing 0.45% by weight lime plant oil in a hydrocarbon mixture. The aerosol mixture was applied to the young leaves of Piper amalago var. amalago plants twice daily.
Gravid females were allowed to lay eggs until the laying subsided on the tenth day. Of the 95 eggs laid, the majority were laid on Piper amalago var. amalago plant sprayed with lime oil. Sixty-one eggs, or 64%, were laid on Piper amalago var. amalago plant sprayed with lime oil. Only 34 eggs, or 36%, were laid on unsprayed lime plant. No eggs were laid on unsprayed Piper amalago var. amalago plant. […]

In the case of `C=C(C)[C@H]1CC=C(C)CC1` [d-limonene], the “eggs laid on sprayed Piper aduncum” value in the experiment with P. demoleus [1] (Days 1-8, choice vs unsprayed lime and unsprayed Piper aduncum, total 16 eggs) was determined as 3 eggs; with P. demoleus [1] (Days 9-20 as titled, total 39 eggs), 3 eggs. Further, the “breeding and feeding on sprayed Piper amalago var. amalago plants” value with P. demoleus [2] is reported as “majority of the P. demoleus population was induced to breed, but not feed”.
